Molecules are shown by their SMILES. Counter-ions that a name gives are not always drawn.

Regarding `Clc1ccc2[nH]cc([C@H]3CC[C@@H](N4CCN(c5cccc6[nH]ccc56)CC4)CC3)c2c1` (as salt: HCl) (hydrate or solvate) [Example 6a, 5-Chloro-3-[cis-4-[4-(1H-indol-4-yl)-1-piperazinyl]cyclohexyl]-1H-indole], the melting point (usually the temperature, or range, at which the solid turns liquid) lay in the range of 283 to 285 °C.

The molecule `Cn1cc([C@H]2CC[C@@H](N3CCN(c4cccc5[nH]ccc45)CC3)CC2)c2cc(C#N)ccc21` (as salt: HCl) (hydrate or solvate) [Example 12a, 3-{(1,4-cis)-4-[4-(1H-indol-4-yl)-piperazin-1-yl]-cyclohexyl}-1-methyl-1H-indole-5-carbonitrile] came in with a melting point of 285.5 to 288 °C.

Take `COc1ccc(F)cc1N1CCN([C@H]2CC[C@@H](c3c[nH]c4ccc(F)cc43)CC2)CC1` (as salt: HCl) [Example 22a, 5-Fluoro-3-{(cis)-4-[4-(5-fluoro-2-methoxy-phenyl)-piperazin-1-yl]-cyclohexyl}-1H-indole]: the melting point is 171 to 174 °C.

Turning to `COc1ccccc1N1CCN([C@H]2CC[C@@H](c3c[nH]c4ncccc43)CC2)CC1` (as salt: HCl) [Example 21, 3-{(1,4-cis)-4-[4-(2-Methoxy-phenyl)-piperazin-1-yl]-cyclohexyl}-1H-pyrrolo[2,3-b]pyridine], the melting point is 259 to 261 °C.

As for `Fc1ccc2c(c1)[nH]cc2[C@H]1CC[C@H](N2CCN(c3cccc4[nH]ccc34)CC2)CC1` (as salt: HCl) [Example 4b, 6-Fluoro-3-[trans-4-[4-(1H-indol-4-yl)-1-piperazinyl]cyclohexyl]-1H-indole], the melting point was 319 to 320 °C (dec.).

For the molecule `CN(C)C(=O)c1cc(N2CCN([C@H]3CC[C@H](c4cn(C)c5ccc(C#N)cc54)CC3)CC2)c2ncccc2c1` [Example 77b, 8-[4-[(trans)-4-(5-Cyano-1-methyl-1H-indol-3-yl)cyclohexyl]-1-piperazinyl]-N,N-dimethyl-6-quinolincarboxamide], the melting point lay in the range of 160 to 163 °C.

In the case of `COc1ccc2[nH]cc([C@H]3CC[C@H](N4CCN(c5ccccc5OC)CC4)CC3)c2c1` (as salt: HCl) [Example 20b, 5-Methoxy-3-{(1,4-trans)-4-[4-(2-methoxy-phenyl)-piperazin-1-yl]-cyclohexyl}-1H-indole], the melting point fell in the range of 195 to 197 °C.

`COc1ccc2cc(N3CCN(C4CCC(c5c[nH]c6ccc(F)cc56)CC4)CC3)ccc2c1` (stereo not shown) (as salt: oxalate) [Example 69, 5-Fluoro-3-{4-[4-(6-Methoxy-naphthalen-2-yl)-piperazin-1-yl]-cyclohexyl}-1H-indole] showed a melting point of 200 to 203 °C.

For `Brc1ccc2[nH]cc([C@H]3CC[C@H](N4CCN(c5cccc6[nH]ccc56)CC4)CC3)c2c1` (as salt: HCl) [Example 5b, 5-Bromo-3-[trans-4-[4-(1H-indol-4-yl)-1-piperazinyl]cyclohexyl]-1H-indole], the melting point is over 300 °C.

`COc1cc(N2CCN([C@H]3CC[C@@H](c4c[nH]c5ccc(C(F)(F)F)cc54)CC3)CC2)c2ncccc2c1` [Example 82, 6-Methoxy-8-(4-{(cis)-4-[5-(trifluoromethyl)-1H-indol-3-yl]cyclohexyl}-1-piperazinyl)quinoline] yielded a melting point of 143 to 147 °C.

Regarding `COc1cc(N2CCN(C3CCC(c4c[nH]c5cc(C#N)ccc45)CC3)CC2)c2ncccc2c1` (stereo not shown) [Example 85, 3-{4-[4-(6-Methoxy-8-quinolinyl)-1-piperazinyl]cyclohexyl}-1H-indole-6-carbonitrile], the melting point fell in the range of 242 to 244 °C.

Regarding `COc1cc(N2CCN([C@H]3CC[C@H](c4cn(C)c5ccc(C#N)cc54)CC3)CC2)c2ncccc2c1Cl` [Example 52f, (trans)-3-{4-[4-(5-Chloro-6-methoxyquinolin-8-yl)piperazin-1-yl]cyclohexyl}-1-methyl-1H-indole-5-carbonitrile], the melting point lay in the range of 215 to 216 °C.

In turn, `N#Cc1ccc2[nH]cc([C@H]3CC[C@@H](N4CCN(c5cc(F)cc6c5OCC6)CC4)CC3)c2c1` (as salt: HCl) (hydrate or solvate) [Example 33a, 3-{(1,4-cis)-4-[4-(5-Fluoro-2,3-dihydro-benzofuran-7-yl)-piperazin-1-yl]-cyclohexyl}-1H-indole-5-carbonitrile] showed a melting point of 298 to 301 °C.

`Fc1ccc2[nH]cc([C@H]3CC[C@@H](N4CCN(c5cccc6[nH]ccc56)CC4)CC3)c2c1` (as salt: HCl) [Example 3a, 5-Fluoro-3-[cis-4-[4-(1H-indol-4-yl)-1-piperazinyl]cyclohexyl]-1H-indole] registered a melting point of 215 to 217 °C.

`COC(=O)c1cc(N2CCN([C@H]3CC[C@@H](c4cn(C)c5ccc(C#N)cc54)CC3)CC2)c2ncccc2c1` (as salt: oxalate) [Example 75, Methyl 8-[4-[(cis)-4-(5-cyano-1-methyl-1H-indol-3-yl)cyclohexyl]-1-piperazinyl]-6-quinolinecarboxylate] showed a melting point of 153 to 155 °C.

`Fc1cccc2[nH]cc([C@H]3CC[C@@H](N4CCN(c5cccc6[nH]ccc56)CC4)CC3)c12` (as salt: HCl) (hydrate or solvate) [Example 2a, 4-Fluoro-3-[cis-4-[4-(1H-indol-4-yl)-1-piperazinyl]cyclohexyl]-1H-indole] yielded a melting point of 283 to 285 °C.

Molecule `N#Cc1ccc2[nH]cc([C@H]3CC[C@@H](N4CCN(c5cccc6ccoc56)CC4)CC3)c2c1` (as salt: HCl) (hydrate or solvate) [Example 34a] gave a melting point of 295 to 296 °C.

Regarding `CCn1cc([C@H]2CC[C@@H](N3CCN(c4cccc5[nH]ccc45)CC3)CC2)c2cc(C#N)ccc21` (as salt: HCl) (hydrate or solvate) [Example 13a, 1-Ethyl-3-{(1,4-cis)-4-[4-(1H-indol-4-yl)-piperazin-1-yl]-cyclohexyl}-1H-indole-5-carbonitrile], the melting point is 245 °C.

In turn, `Cn1ccc2c(N3CCN([C@H]4CC[C@@H](c5cn(C)c6cc(F)ccc65)CC4)CC3)cccc21` (as salt: HCl) (hydrate or solvate) [Example 11, 6-Fluoro-1-methyl-3-{cis-4-[4-(1-methyl-1H-indol-4-yl)-1-piperazinyl]cyclohexyl}-1H-indole] came in with a melting point of 253 to 254 °C.

In the case of `c1cc(N2CCN([C@H]3CC[C@@H](c4c[nH]c5ncccc54)CC3)CC2)c2cc[nH]c2c1` (as salt: HCl) [Example 10a, 3-{(1,4-cis)-4-[4-(1H-Indole-4-yl)-piperazin-1-yl]-cyclohexyl}-1H-pyrrolo[2,3-b]pyridine], the melting point is > 250 °C (dec.).

In turn, `COc1ccccc1C1CCN([C@H]2CC[C@@H](c3c[nH]c4ccc(F)cc43)CC2)CC1` (as salt: HCl) [Example 19a, 5-Fluoro-3-{(1,4-cis)-4-[4-(2-methoxy-phenyl)-piperidin-1-yl]-cyclohexyl}-1H-indole] yielded a melting point of 245 to 250 °C.

`COc1cc(N2CCN([C@H]3CC[C@@H](c4cn(C)c5ncccc54)CC3)CC2)c2ncccc2c1` [Example 79, 6-Methoxy-8-{cis-4-[4-(1-methyl-1H-pyrrolo[2,3-b]pyridin-3-yl)cyclohexyl]-1-piperazinyl}quinoline] registered a melting point of 105 to 110 °C.

Consider `CN(C)C(=O)c1cc(N2CCN([C@H]3CC[C@@H](c4cn(C)c5ccc(C#N)cc54)CC3)CC2)c2ncccc2c1` (as salt: oxalate) [Example 77a, 8-[4-[(cis)-4-(5-Cyano-1-methyl-1H-indol-3-yl)cyclohexyl]-1-piperazinyl]-N,N-dimethyl-6-quinolincarboxamide], for which the melting point lay within 163 to 165 °C.

Molecule `N#Cc1ccc2[nH]cc([C@H]3CC[C@H](N4CCN(c5cccc6ccoc56)CC4)CC3)c2c1` (as salt: HCl) (hydrate or solvate) [Example 34b] showed a melting point of 330 to 331 °C.

`COc1cc(N2CCN([C@H]3CC[C@@H](c4c[nH]c5ncccc54)CC3)CC2)c2ncccc2c1` (as salt: oxalate) [Example 78, 6-Methoxy-8-{cis-4-[4-(1H-pyrrolo[2,3-b]pyridin-3-yl)cyclohexyl]-1-piperazinyl}quinoline] showed a melting point of 216 to 220 °C.

With `Cn1cc([C@H]2CC[C@@H](N3CCN(c4cc(C=O)cc5cccnc45)CC3)CC2)c2cc(C#N)ccc21` (as salt: oxalate) [Example 71, 8-[4-[(cis)-4-(5-Cyano-1-methyl-1H-indole-3-yl)-cyclohexyl]-piperazin-1-yl]-6-quinolinecarbaldehyde], the melting point lay within 172 to 174 °C.

For the molecule `Cc1[nH]c2ccccc2c1[C@H]1CC[C@H](N2CCN(c3cccc4[nH]ccc34)CC2)CC1` (as salt: HCl) [Example 9b, 3-[trans-4-[4-(1H-Indol-4-yl)-1-piperazinyl]cyclohexyl]-2-methyl-1H-indole], the melting point is over 310 °C.

Turning to `c1cc(N2CCN([C@H]3CC[C@@H](c4c[nH]c5ccccc54)CC3)CC2)c2cc[nH]c2c1` (as salt: HCl) [Example 1a, 3-[cis-4-[4-(1H-Indol-4-yl)-1-piperazinyl]cyclohexyl]-1H-indole], the melting point was 198 to 200 °C.

In the case of `N#Cc1ccc2[nH]cc([C@H]3CC[C@H](N4CCN(c5cc(F)cc6c5OCC6)CC4)CC3)c2c1` (as salt: HCl) (hydrate or solvate) [Example 33b, 3-{(1,4-trans)-4-[4-(5-Fluoro-2,3-dihydro-benzofuran-7-yl)-piperazin-1-yl]-cyclohexyl}-1H-indole-5-carbonitrile], the melting point was in the range of 330 to 331 °C.

Take `COc1cc(N2CCN([C@H]3CC[C@@H](c4cn(C)c5ccc(C#N)cc54)CC3)CC2)c2ncc(C)cc2c1` [Example 51b, (cis)-3-{4-[4-(6-Methoxy-3-methylquinolin-8-yl)piperazin-1-yl]cyclohexyl}-1-methyl-1H-indole-5-carbonitrile]: the melting point fell in the range of 190 to 191.5 °C.

`N#Cc1ccc2[nH]cc([C@H]3CC[C@@H](N4CCN(c5cccc6c5OCCO6)CC4)CC3)c2c1` (as salt: HCl) [Example 26a, 3-{(1,4-cis)-4-[4-(2,3-Dihydro-benzo[1,4]dioxin-5-yl)-piperazin-1-yl]-cyclohexyl}-1H-indole-5-carbonitrile] returned a melting point of 300 °C.
